{"source": "paper PMC5501782", "about": "(Scientific Reports, 2017)", "tested_on": "influenza virus (A/Puerto Rico/8/34, PR8) expressing green fluorescent protein (PR8-GFP)", "assay_type": "cell-based", "note": "Non-standard residues stand in square brackets, D forms with d. Residues, ends and D or L forms follow the SMILES beside them.", "data": [{"smiles": "CC(C)C[C@@H](NC(=O)[C@@H](CC(C)C)NC(=O)[C@@H](CC(N)=O)NC(=O)[C@H](NC(=O)[C@@H](Cc1ccccc1)NC(=O)CNC(=O)[C@@H](Cc1ccc(O)cc1)NC(=O)CNC(=O)[C@@H](CCCNC(=N)N)NC(=O)[C@@H](CCCCN)NC(=O)[C@@H](CCCCN)NC(=O)[C@@H](CCCNC(=N)N)NC(=O)[C@@H](CCCNC(=N)N)NC(=O)[C@@H](CCC(N)=O)NC(=O)[C@@H](CCCNC(=N)N)NC(=O)[C@@H](CCCNC(=N)N)NC(=O)[C@H](N)CCCNC(=N)N)C(C)C)C(=O)N[C@H](Cc1ccccc1)C(=O)N[C@H](CC(C)C)C(=O)N[C@@H](C(=O)N[C@@H](C(=O)N[C@H](CCC(=O)O)C(=O)O)C(C)C)C(C)C", "note": "[TAT-Kα2] (H-[dR][dR][dR][dQ][dR][dR][dK][dK][dR]G[dY]G[dF][dV][dN][dL][dL][dF][dL][dV][dV][dE]-OH)", "values": [{"measurement": "inhibition of PR8-GFP virus infection", "result": "significantly inhibited"}]}]}
